Reference: patent publication US20030225152A1, “3-(Arylamino)methylene-1, 3-dihydro-2h-indol-2-ones as kinase inhibitors” (priority 2001, published 2003)

Test system: VEGF induced increases in intracellular calcium levels in HUVEC (human umbilical vein endothelial cells)
Assay: VEGF Stimulated Ca++ Signal in vitro (FLIPR)
Format: cell-based
Settings: VEGF 5 ng/mL; for IC50: 0.01 to 10.0 μM
Method: VEGF Stimulated Ca^++ Signal in vitro
Automated FLIPR (Fluorometric Imaging Plate Reader) technology was used to screen for inhibitors of VEGF induced increases in intracellular calcium levels in fluorescent dye loaded endothelial cells. HUVEC (human umbilical vein endothelial cells) (Clonetics) were seeded in 96-well fibronectin coated black-walled plates overnight at 37° C./5%CO2. Cells were loaded with calcium indicator Fluo-4 for 45 minutes at 37° C. Cells were washed 4 times (Original Cell Wash, Labsystems) to remove extracellular dye. Test compounds were reconstituted in 100% DMSO and added to the cells to give a final DMSO concentration of 0.1%. For screening, cells were pre-incubated with test agents for 30 minutes, at a single concentration (10 μM) or at concentrations ranging from 0.01 to 10.0 μM followed by VEGF stimulation (5 ng/mL). Changes in fluorescence at 516 nm were measured simultaneously in all 96 wells using a cooled CCD camera. Data were generated by determining max-min fluorescence levels for unstimulated, stimulated, and drug treated samples. IC50 values for test compounds were calculated from % inhibition of VEGF stimulated responses in the absence of inhibitor.

| Structure (SMILES) | inhibition at 10 µM (Homo sapiens) [%] | IC50 (Homo sapiens) [nM] | other results |
| --- | --- | --- | --- |
| Cc1ccc(NC=C2C(=O)Nc3ccc(Cl)cc32)cc1O [Example 71, 3-[(3-Hydroxy-4-methylphenylamino)-methylene]-5-chloro-1,3-dihydro-indol-2-one] | 38.5 | – | – |
| O=C1Nc2ccc(Cl)cc2C1=CNc1ccccc1 [Example 74, 3-[(Phenylamino)-methylene]-5-chloro-1,3-dihydro-indol-2-one] | 44 | – | – |
| COc1cc(NC=C2C(=O)Nc3ccc(Cl)cc32)cc(OC)c1 [Example 75, 3-[(3,5-Dimethoxyphenylamino)-methylene]-5-chloro-1,3-dihydro-indol-2-one] | -18 | – | – |
| O=C1Nc2ccc(Cl)cc2C1=CNc1cccc(O)c1 [Example 76, 3-[(3-Hydroxyphenylamino)-methylene]-5-chloro-1,3-dihydro-indol-2-one] | 55.5 | – | – |
| O=C1Nc2ccc(Cl)cc2C1=CNc1ccc(O)cc1 [Example 77, 3-[(4-Hydroxyphenylamino)-methylene]-5-chloro-1,3-dihydro-indol-2-one] | 35 | – | – |
| Cc1cc(C)cc(NC=C2C(=O)Nc3ccc(Cl)cc32)c1 [Example 78, 3-[(3,5-Dimethylphenylamino)-methylene]-5-chloro-1,3-dihydro-indol-2-one] | 8 | – | – |
| Cc1ccc(NC=C2C(=O)Nc3ccc(Cl)cc32)cc1 [Example 79, 3-[(4-Methylphenylamino)-methylene]-5-chloro-1,3-dihydro-indol-2-one] | -4 | – | – |
| O=C1Nc2ccccc2C1=CNc1ccc2c(c1)OCO2 [Example 80, 3-[(3,4-Methylenedioxyphenylamino)-methylene]-1,3-dihydro-indol-2-one] | 3.5 | – | – |
| O=C1Nc2ccccc2C1=CNc1ccc(C(=O)O)cc1 [Example 86, 4-[(2-Oxo-1,2-dihydro-indol-3-ylidenemethyl)-amino]-benzoic acid] | 48.5 | – | – |
| COC(=O)c1ccc(NC=C2C(=O)Nc3ccccc32)cc1OC [Example 89, 2-Methoxy-4-[(2-oxo-1,2-dihydro-indol-3-ylidenemethyl)-amino]-benzoic acid methyl ester] | 39.5 | – | – |
| Cc1ccc(NC=C2C(=O)Nc3cccc(C)c32)cc1C [Example 95, 3-[(3,4-Dimethyl-phenylamino)-methylene]-4-methyl-1,3-dihydro-indol-2-one] | 14 | – | – |
| Cc1cccc2c1C(=CNc1ccc(C(C)(C)C)cc1)C(=O)N2 [Example 98, 3-[(4-tert-Butyl-phenylamino)-methylene]-4-methyl-1,3-dihydro-indol-2-one] | 47.5 | – | – |
| CC(C)(C)c1ccc(NC=C2C(=O)Nc3ccc(Cl)cc32)cc1 [Example 100, 5-Chloro-3-[(4-t-butyl-phenylamino)-methylene]-1,3-dihydro-indol-2-one] | 6 | – | – |
| COc1cc(NC=C2C(=O)Nc3ccc(Cl)cc32)c(OC)cc1Cl [Example 104, 5-Chloro-3-[(4-chloro-2,5-dimethoxy-phenylamino)-methylene]-1,3-dihydro-indol-2-one] | -14.5 | – | – |
| COc1ccc(NC=C2C(=O)Nc3ccc(Cl)cc32)cc1F [Example 105, 5-Chloro-3-[(3-flouro-4-methoxyphenylamino)-methylene]-1,3-dihydro-indol-2-one] | – | – | VEGF Stimulated Ca^++ signal assay % inhibition @ 10 μM: 17.50% |
| CCOc1ccc(NC=C2C(=O)Nc3ccc(Cl)cc32)cc1 [Example 107, 5-Chloro-3-[(4-ethoxyphenylamino)-methylene]-1,3-dihydro-indol-2-one] | 41.5 | – | – |
| O=C1Nc2ccc(Cl)cc2C1=CNc1ccc(O)c(C(=O)O)c1 [Example 108, 5-(5-Chloro-2-oxo-1,2-dihydro-indol-3-ylidenemethylamino)-2-hydroxybenzoic acid] | -14.5 | – | – |
| Cc1cc(NC=C2C(=O)Nc3ccc(Cl)cc32)ccc1C(C)C [Example 112, 5-Chloro-3-[(4-i-propyl-3-methylphenylamino)-methylene]-1,3-dihydro-indol-2-one] | 10.5 | – | – |
| Cc1cccc2c1C(=CNc1ccc(O)c(C(=O)O)c1)C(=O)N2 [Example 118, 2-Hydroxy-5-[(4-methyl-2-oxo-1,2-dihydro-indol-3-ylidenemethyl)-amino]-benzoic acid] | -27 | – | – |
| Cc1cccc2c1C(=CNc1ccc(OC(F)(F)F)cc1)C(=O)N2 [Example 120, 4-Methyl-3-[(4-trifluoromethoxy-phenylamino)-methylene]-1,3-dihydro-indol-2-one] | 12.7 | – | – |

| Structure (SMILES) | inhibition at 10 µM (Homo sapiens) [%] | IC50 (Homo sapiens) [nM] | other results |
| --- | --- | --- | --- |
| COc1ccc(NC=C2C(=O)Nc3cccc(C)c32)cc1C(F)(F)F [Example 121, 3-[(4-Methoxy-3-trifluoromethyl-phenylamino)-methylene]-4-methyl-1,3-dihydro-indol-2-one] | 4.86 | – | – |
| CCc1ccccc1NC=C1C(=O)Nc2cccc(C)c21 [Example 127, 3-[(2-Ethyl-phenylamino)-methylene]-4-methyl-1,3-dihydro-indol-2-one] | -11.8 | – | – |
| Cc1cccc2c1C(=CNc1ccc(C(N)=O)cc1)C(=O)N2 [Example 129, 4-[(4-Methyl-2-oxo-1,2-dihydro-indol-3-ylidenemethyl)-amino]-benzamide] | 99 | 1270 | – |
| Cc1cc(NC=C2C(=O)Nc3cccc(C)c32)ccc1O [Example 132, 3-[(4-Hydroxy-3-methyl-phenylamino)-methylene]-4-methyl-1,3-dihydro-indol-2-one] | 73 | 7380 | – |
| Cc1cc(NC=C2C(=O)Nc3ccccc32)ccc1O [Example 133, 3-[(4-Hydroxy-3-methyl-phenylamino)-methylene]-1,3-dihydro-indol-2-one] | 73 | 4910 | – |
| CCc1cccc(NC=C2C(=O)Nc3ccc(Cl)cc32)c1 [Example 148, 5-Chloro-3-[(3-ethyl-phenylamino)-methylene]-1,3-dihydro-indol-2-one] | 42.2 | – | – |
| N#Cc1ccc(NC=C2C(=O)Nc3ccc(Cl)cc32)cc1 [Example 152, 4-[(5-Chloro-2-oxo-1,2-dihydro-indol-3-ylidenemethyl)-amino]-benzonitrile] | 18.7 | – | – |
| Cc1cccc2c1C(=CNc1ccc(C(=O)O)c(O)c1)C(=O)N2 [Example 155, 2-Hydroxy-4-[(4-methyl-2-oxo-1,2-dihydro-indol-3-ylidenemethyl)-amino]-benzoic acid] | 97.2 | 2600 | – |
| CCN(CC)Cc1cc(NC=C2C(=O)Nc3cccc(C)c32)ccc1O [Example 161, 3-[(3-Diethylaminomethyl-4-hydroxy-phenylamino)-methylene]-4-methyl-1,3-dihydro-indol-2-one] | 95.2 | – | – |
| O=C1Nc2ccc(F)cc2C1=CNc1ccc(N2CCCCC2)cc1 [Example 221] | – | – | VEGF Stimulated Ca^++ signal assay % inhibition @ 10 μM: 97.59%; IC50: 930 nM |
| CN1CCN(CCCNc2ccc(NC=C3C(=O)Nc4ccccc43)cc2)CC1 [Example 302, 3-({4-[3-(4-Methyl-piperazin-1-yl)-propylamino]-phenylamino}-methylene)-1,3-dihydro-indol-2-one] | – | 710 | – |
| Cc1cccc2c1C(=CNc1ccc(NCCCN3CCN(C)CC3)cc1)C(=O)N2 [Example 303, 4-Methyl-3-({4-[3-(4-methyl-piperazin-1-yl)-propylamino]-phenylamino}-methylene)-1,3-dihydro-indol-2-one] | – | 520 | – |
| CN1CCN(CCCNc2ccc(NC=C3C(=O)Nc4cc(F)ccc43)cc2)CC1 [Example 304, 6-Fluoro-3-({4-[3-(4-methyl-piperazin-1-yl)-propylamino]-phenylamino}-methylene)-1,3-dihydro-indol-2-one] | – | 120 | – |
| O=C1Nc2ccccc2C1=CNc1ccc(CCCCN2CCOCC2)cc1 [Example 312, 3-{[4-(4-Morpholin-4-yl-butyl)-phenylamino]-methylene}-1,3-dihydro-indol-2-one] | – | 540 | – |
| O=C1Nc2ccc(Cl)cc2C1=CNc1ccc(CCCCN2CCOCC2)cc1 [Example 313, 5-Chloro-3-{[4-(4-morpholin-4-yl-butyl)-phenylamino]-methylene}-1,3-dihydro-indol-2-one] | – | 990 | – |
| Cc1cccc2c1C(=CNc1ccc(CCCCN3CCOCC3)cc1)C(=O)N2 [Example 314, 4-Methyl-3-{[4-(4-morpholin-4-yl-butyl)-phenylamino]-methylene}-1,3-dihydro-indol-2-one] | – | 320 | – |
| O=C1Nc2cccc(F)c2C1=CNc1ccc(CCCCN2CCOCC2)cc1 [Example 315, 4-Fluoro-3-{[4-(4-morpholin-4-yl-butyl)-phenylamino]-methylene}-1,3-dihydro-indol-2-one] | – | 1540 | – |
| O=C1Nc2ccc(F)cc2C1=CNc1ccc(CCCCN2CCOCC2)cc1 [Example 316, 5-Fluoro-3-{[4-(4-morpholin-4-yl-butyl)-phenylamino]-methylene}-1,3-dihydro-indol-2-one] | – | 590 | – |
| O=C1Nc2cc(F)ccc2C1=CNc1ccc(CCCCN2CCOCC2)cc1 [Example 317, 6-Fluoro-3-{[4-(4-morpholin-4-yl-butyl)-phenylamino]-methylene}-1,3-dihydro-indol-2-one] | – | 170 | – |
| O=C1Nc2ccc(Cl)cc2C1=CNc1ccc(CCCCN2CCCCC2)cc1 [Example 319, 5-Chloro-3-{[4-(4-piperidin-1-yl-butyl)-phenylamino]-methylene}-1,3-dihydro-indol-2-one] | – | 950 | – |
